Experiment: in vivo
Parameters: species or system BALB/c mice
Settings: mouse, sc
Method: All procedures involving mice were approved by the Animal Care and Use Committee of Johns Hopkins University. […] Blood was sampled from three mice per group per time point by mandibular vein puncture or cardiac puncture at the following time points: 5, 15, 30, 60, 120, and 240 min post-dose. Plasma was separated in heparin-containing tubes and frozen. […] Concentration–time data were analyzed by standard non-compartmental and compartmental techniques using WinNonlin (version 7.0; Pharsight, Mountain View, CA). A one-compartmental model was used to perform simulations to predict the plasma concentration–time profile after subcutaneous doses of 150, 300, and 450 mg/kg, alone and in combination with probenecid. A plasma free drug fraction of 2% of the total drug concentration was included in the simulations.

Compound: C[C@@H](O)C1C(=O)N2C(C(=O)O)=C(SC3CN(C4=NCCS4)C3)SC12 (stereo in doubt) [T405]
- half-life (female, BALB/c): 1.26 h
- AUC(0-t) (female, BALB/c, 25 mg/kg): 205 µg·h/mL
- Cmax (female, BALB/c, 25 mg/kg): 164 µg/mL
- half-life (female, BALB/c, 25 mg/kg): 0.82 h
- Half-life, effect of co-administration with cilastatin: not affected

From PMC7721803, “Development of a penem antibiotic against Mycobacteroides abscessus” (Communications Biology, 2020)
